Data on 7 compounds can be found in patent US5324832A, “Muscarinic antagonists” (priority 1991, dated 1994).

Molecules are shown by their SMILES. Entries after “also recorded” stand apart in the source; their conditions may differ. A value given as a limit tells only on which side of the number the result lay.

In data set [1] the test system is m1 through m4 muscarinic receptors. As to the kind of experiment: Displacement of [3H]NMS from muscarinic receptors (m1-m4), subtype not singled out. In kind it is binding. As to conditions: in words; for affinity / potency at muscarinic receptors: qualitative; for receptor subtype selectivity: m1 versus m2 / among subtypes. The source says:
(§1) The analogues were screened in binding assays using membranes from cells or tissues containing primarily single subtypes of m1 through m4 muscarinic receptors. Transfected A9L cells were used as a source of homogeneous populations of m1, m3, and m4 receptors. See Jones, S. V.; Barker, J. L.; Buckley, N. J.; Bonner, T. I; Brann, M. R., Mol. Pharmacol., 1988, 34, 421, which is specifically incorporated by reference herein. Rat heart tissue was the source of m2 muscarinic receptors.
(§2) A crude membrane fraction was obtained as follows. Confluent cultures were rinsed three times with phosphate-buffered saline, and lysed in a solution of 2 mM Tris-HCl (pH 7.1) and 1 mM EDTA for 30 min at 2° C. The cells were harvested by scraping and homogenized on a Polytron (10 sec, 75% mix).
(§3) Nuclei were removed in a low speed centrifugation (400 × g, 5 min) and a crude membrane preparation was obtained by centrifugation of the supernatant at 50,000 × g for 20 min. The resulting pellet was resuspended in the lysis buffer and recentrifuged at 50,000 × g for 20 min. Membranes were stored frozen at -70° C. until needed.
(§4) The total volume was 1 mL.
(§5) The incubation was terminated by rapid filtration over GF/B filters using a Brandel cell harvester. The filters were washed three times with ice-cold 0.9% NaCl, equilibrated in scintillation counting fluid and counted on a Beckmann LS 5801 liquid scintillation counter at 47% efficiency.
(§6) It was routinely subtracted from the total counts.
In general terms: Displacement assays read how much labelled ligand stays bound in the presence of the test substance.

For data set [2], the target named is T1, m1 muscarinic receptors (Rattus norvegicus, UniProt P08482).
T1 sequence (P08482 1-460): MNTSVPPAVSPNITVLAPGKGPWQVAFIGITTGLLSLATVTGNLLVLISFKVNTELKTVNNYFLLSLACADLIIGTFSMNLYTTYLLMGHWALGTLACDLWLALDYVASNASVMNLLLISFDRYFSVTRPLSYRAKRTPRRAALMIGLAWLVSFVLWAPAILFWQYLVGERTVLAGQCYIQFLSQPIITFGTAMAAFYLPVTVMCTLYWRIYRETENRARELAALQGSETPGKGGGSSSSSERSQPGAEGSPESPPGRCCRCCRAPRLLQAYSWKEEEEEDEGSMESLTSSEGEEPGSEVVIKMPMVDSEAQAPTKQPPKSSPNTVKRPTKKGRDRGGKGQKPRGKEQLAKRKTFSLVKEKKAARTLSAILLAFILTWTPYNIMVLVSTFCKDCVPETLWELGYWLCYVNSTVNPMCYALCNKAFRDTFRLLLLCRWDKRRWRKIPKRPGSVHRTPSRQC
The data set is described as follows: Inhibition of [3H]NMS binding, membranes of transfected A9L cells expressing m1 receptors. The arrangement: expressed in transfected cells; host or cells: A9L cells (obtained from Dr. M. Brann, NIH). The settings on record: for factor by which 29a and 32d differ in affinity at m1 receptors: 29a versus 32d. Here is the method:
The analogues were screened in binding assays using membranes from cells or tissues containing primarily single subtypes of m1 through m4 muscarinic receptors. Transfected A9L cells were used as a source of homogeneous populations of m1, m3, and m4 receptors. […] Rat heart tissue was the source of m2 muscarinic receptors.
A crude membrane fraction was obtained as follows. Confluent cultures were rinsed three times with phosphate-buffered saline, and lysed in a solution of 2 mM Tris-HCl (pH 7.1) and 1 mM EDTA for 30 min at 2° C.
as §3, §4
The incubation was terminated by rapid filtration over GF/B filters using a Brandel cell harvester.
as §6

The next data set concerns the target T2, m2 muscarinic receptors (Rattus norvegicus, UniProt P10980).
T2 construct: Rat heart tissue was the source of m2 muscarinic receptors; from tissue; host or cells: rat heart
T2 sequence (P10980 1-466): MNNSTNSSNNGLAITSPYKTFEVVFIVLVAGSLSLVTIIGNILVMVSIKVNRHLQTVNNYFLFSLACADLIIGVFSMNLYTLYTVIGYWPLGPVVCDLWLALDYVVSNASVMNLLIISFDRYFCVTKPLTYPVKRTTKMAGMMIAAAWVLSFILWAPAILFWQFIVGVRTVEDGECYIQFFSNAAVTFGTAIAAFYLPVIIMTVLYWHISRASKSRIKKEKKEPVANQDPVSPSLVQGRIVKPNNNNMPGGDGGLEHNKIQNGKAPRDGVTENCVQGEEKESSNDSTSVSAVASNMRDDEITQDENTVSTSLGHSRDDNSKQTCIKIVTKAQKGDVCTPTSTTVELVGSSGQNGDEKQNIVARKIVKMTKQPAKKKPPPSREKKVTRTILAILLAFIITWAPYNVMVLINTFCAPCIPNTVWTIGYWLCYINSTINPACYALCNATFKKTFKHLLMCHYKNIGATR
As to the kind of experiment: Inhibition of [3H]NMS binding, membranes from rat heart (m2 receptors). As to conditions: for factor by which 29a and 32d differ in affinity at m2 receptors: 29a versus 32d.
Description: as §1, §2, §3, §4, §5, §6

For another data set, the system named is gastric acid production. As to conditions: clinical; in words; cited from earlier work.
Data set [3] addresses T1, m1 muscarinic receptors. The data set is described as follows: Irreversible labelling: [3H]NMS saturation of treated vs. control rat forebrain membranes. In kind it is binding. As to conditions: in words. Here is the method:
When incubated with membranes from rat forebrain tissue […] followed by thorough washing, compound 41a caused an unrecoverable reduction in the Bmax at m1 receptors of 90-95% (from saturation of treated vs. control membranes with [3H]NMS).

The target in data set [4] is T1, m1 muscarinic receptors. In kind it is binding. The settings on record: 1.0 mM compound 26, in words. Here is the method: To assay for irreversible inhibition in rat brain membranes, Scatchard analyses before and after treatment of the membranes with 26 were compared. Even a very […].
Aliquots of brain membranes were incubated with 1.0 mM of freshly dissolved 26 in phosphate-buffered saline (pH 8.0) for 60 min at room temperature, then centrifuged at 15,000 rpm for 10 min.
The resulting pellet was resuspended in 25 mL of fresh phosphate-buffered saline (pH 7.2) and centrifuged as above.

The nature of data set [5]: Storage stability of the salt. It counts as physicochemical. The settings on record: -20 ° C.; dihydrochloride salt. Here is the method:
Compound 25 (110 mg, 0.22 mmol) was refluxed for 1 h with thionyl chloride (1 mL) in chloroform (4 mL). The volatile material was removed in vacuo, and the residue was basified with aqueous Na2 CO3 (pH 10) and washed immediately with ether to completely remove the non polar impurity (TLC CHCl3 /CH3 OH/NH4 OH: 9/1/0.1, Rf 0.4). The product was extracted into CHCl3 from the cold aqueous phase and the combined CHCl3 layers were concentrated in vacuo and acidified using ether/HCl. The precipitate was dried in vacuo to yield 29 mg of 26 (25%) as a white solid: mp 188°-190° C.; 1H NMR (D20, HCl salt) δ 3.00-4.00 (m, 14 H), 7.50-7.70 (m, 3 H), 7.70-7.90 (m, 3 H), 8.40 (s, 1 H); MS (CI/NH3) m/e 400 (MH+), 212 (base), 364, 338. […] The salt was stable upon storage at -20 ° C. for at least 6 months.

Where [6] appears, read: in words, versus propargyl derivative 22.

`NCCCCCCCCCCN1CCN(CC(=O)N2c3ccccc3C(=O)Nc3cccnc32)CC1` [Compound 34h, 5,11-Dihydro-11-[(4-[10-aminodecyl]-1-piperazinyl)acetyl]-6H-pyrido[2,3-b][1,4]-benzodiazepine-6-one]: the “affinity / potency at muscarinic receptors” value (“affinity / potency” below) in data set [1] was “higher affinities than the corresponding derivatives with the small neutral acetylamino terminal group (35g and 35h); also recorded: most potent in the series of primary amines”. Also, the receptor subtype selectivity result in data set [1] was “non-selective”. Moreover, the Kd at m1 muscarinic receptors [2] (m1) and at m2 muscarinic receptors (m2) was less than 20 nM in each case.
Consider `O=C1Nc2cccnc2N(C(=O)CN2CCN(Cc3ccccc3)CC2)c2ccccc21` [Compound 23, 5,11-Dihydro-11-[(4-benzyl-1-piperazinyl)acetyl]-6H-pyrido[2,3-b] [1,4]benzodiazepine-6-one], for which the receptor subtype selectivity result in data set [1] is “non-selective for m1 versus m2 receptors”. Further, the “affinity at m1 muscarinic receptors relative to 22” value at m1 muscarinic receptors [2] (setting [6]) is “greater affinity at m1 and m2 muscarinic receptors”. Moreover, at m2 muscarinic receptors (setting [6]), the “affinity at m2 muscarinic receptors relative to 22” value was “greater affinity at m1 and m2 muscarinic receptors”.
Take `CC(C)(C)OC(=O)NCCC(=O)NCCN1CCN(CC(=O)N2c3ccccc3C(=O)Nc3cccnc32)CC1` [Compound 29a]: the “affinity / potency” value in data set [1] is “inactivity”. In addition, the “factor by which 29a and 32d differ in affinity at m1 receptors” value at m1 muscarinic receptors [2] (m1) was found to be 360. At m2 muscarinic receptors (m2), the “factor by which 29a and 32d differ in affinity at m2 receptors” value amounted to 280.
Taken in the same sequence, the figures for `CC(C)(C)OC(=O)NCCCCCCN1CCN(CC(=O)N2c3ccccc3C(=O)Nc3cccnc32)CC1` [Compound 32d] were “more potent than the corresponding free amines (34)”, 360 and 280.
With `CN1CCN(CC(=O)N2c3ccccc3C(=O)Nc3cccnc32)CC1` [pirenzepine], in the data set on gastric acid production, the “inhibition of gastric acid production (literature)” value is reported as “useful clinically in the inhibition of gastric acid production”.
As for `O=C1Nc2cccnc2N(C(=O)CN2CCN(CCCCCCCCCCNC(=S)Nc3cccc(N=C=S)c3)CC2)c2ccccc21` [Compound 41a, n=10, 5,11-Dihydro-11-[[4-[10-[(3-isothiocyanatophenyl)aminothiocarbonylamino]decyl]-1-piperazinyl]acetyl]-6H-pyrido[2,3-b][1,4]-benzodiazepine-6-one], the “chemical affinity labelling of m1 receptors” value on m1 muscarinic receptors [3] is on record as “potent chemical affinity label for ml receptors”.
As for `Cl.Cl.O=C1Nc2cccnc2N(C(=O)CN2CCN(CCCl)CC2)c2ccccc21` [Compound 26, 5,11-Dihydro-11-[(4-[2-chloroethyl]-1-piperazinyl)acetyl]-6H-pyrido[2,3-b][1,4]benzodiazepine-6-one dihydrochloride], the “change in Kd and Bmax of [3H]NMS after preincubation” value at m1 muscarinic receptors [4] was “no change in the Kd and Bmax values”. For the same compound, the “irreversible inhibition of m1 receptors” value at m1 muscarinic receptors [4] (dihydrochloride) is reported as “not an irreversible inhibitor of m1 receptors; also recorded: lack of irreversible inhibition”. In addition, in data set [1], the “affinity / potency” value is “high binding affinity” and the receptor subtype selectivity result was “retained selectivity for m1 receptors”. The “selectivity ratio m1 versus m2 receptors” value at m1 muscarinic receptors [2] (in favor of m1 versus m2 receptors) came out at 4.4 fold. The “stability of the salt upon storage” value in data set [5] is “at least 6 months”.

One may read the Kd as the constant that tells how readily two partners part at equilibrium. High values mean a looser complex, low ones a tighter complex.
